From patent publication US20220073475A1, “5-MEMBERED HETEROARYL COMPOUNDS CONTAINING A HYDROXAMATE MOIETY AND THEIR USE” (UNIVERSITE DE LILLE, priority 2019, published 2022)

Assays:
[1] = test system: TLM1 cells; assay: X-ray radiation in combination with compound, propidium iodide dead cells, ratio of corrected AUC; assay type: cell-based, canine; details: TLM1
[2] = test system: TLM1 cells; assay: UV-C radiation in combination with compound, ratio of % propidium iodide labelled cells; assay type: cell-based, canine; details: TLM1
Protocol: Canine melanoma TLM-1 cells are maintained in DMEM medium supplemented with GlutaMAX™, 10% fetal bovine serum, 1× Hepes and 1% penicillin-streptomycin.
Plates were incubated at 37° C. and 5% CO2. […] 4 images per well were collected. Images were analyzed with Columbus software (Perkin Elmer). In this system we used predefined building blocks to measure different parameters on nuclei detected. We applied a threshold based on propidium iodide intensity in nuclei of controls to select and count dead cells. By dividing the number of dead cells by the number of nuclei detected we obtained the percentage of dead cells.

[3] = test system: RPMI 8226 cells; assay: Epoxomicin (EPX) in combination with compound 3, Annexin V/PI flow cytometry; assay type: cell-based, human; details: RPMI 8226 (FIG. 1A), compound at 7.5 μM, 15 μM and 30 μM
Protocol: (§1) RPMI 8226 and MOPC315.BM cells were cultured in RPMI 1640 medium supplemented with L-glutamine, non-essential amino acids, 2-mercaptoethanol and 10% fetal calf serum.
(§2) Cells were seeded in 24-well culture plates at 150,000 cells/well/mL. […] Cells were treated with protease inhibitors for 24 and 48 hours before analysis for apoptosis and cell death by flow cytometry. The cells were centrifuged at 300×g for 5 minutes and washed with cold FACS buffer (PBS 1× with 2 mM EDTA and 0.5% BSA. Then the cells were resuspended in Annexin V binding buffer (BioLegend) at a concentration of 10^6 cells/mL, and 100 μL of each sample was transferred to a 5 mL FACS tube. 5 μL of Annexin V-FITC Ab (BioLegend) and 5 μL of propidium iodide (BioLegend) were added to each sample and incubated 15 min at RT. Finally, 400 μL of Annexin V binding buffer was added to each tube and the cells were analyzed using BD FACSCanto or BD Fortessa machines within an hour. Annexin+ but PI− cells were identified as apoptotic and Annexin+ PI+ as dead cells.

[4] = test system: MOPC315.BM cells; assay: as above; assay type: cell-based, murine; details: MOPC315.BM (FIG. 1B), compound at 7.5 μM, 15 μM and 30 μM
Protocol: as §1, §2

## O=C(C[C@@H](Cc1ccc2ccccc2c1)n1cc(CNC(=O)c2ccc(F)cc2)nn1)NO [Compound 3, 4-Fluoro-N-[1-(R-2-hydroxycarbamoyl-1-naphthalen-2-ylmethyl-ethyl)-1H-[1,2,3]-triazol-4-ylmethyl]-benzamide]
[1]
  Potency of X-ray radiations in combination with compound (in words): increase the potency
[2]
  Potency of UV-C radiations in combination with compound (in words): increase the potency
[3]
  Cytotoxicity of epoxomicin in combination with compound: increased
[4]
  Cytotoxicity of epoxomicin in combination with compound: increased
